Experimental data as given in patent publication US10034886B2, “GLP-1 receptor modulators” (Celgene International II SÀRL, priority 2014, dated 2018).

Biological target: T1, GLP-1R (Homo sapiens, UniProt P43220)
T1 construct: host or cells: GLP-1R CRE-bla CHO-K1 cells
Test: EC20 GLP-1(9-36) PAM cAMP assay: dose response of compound in the presence of fixed concentration of GLP-1(9-36)
Assay type: cell-based
Conditions: GLP-1R CRE-bla CHO-K1 cells, compound dose response with fixed concentration of GLP-1(9-36), read-out: EC20 GLP-1(9-36) PAM EC50
Outline: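 GLP-1R CRE-bla CHO-K1 cells treated 30 min at 37 °C with 12-point compound dose response plus fixed EC20 GLP-1(9-36), with IBMX, in HBSS/HEPES/0.1% BSA pH 7.4. Total cAMP measured by luminescent detection against standard curve; EC50 and Emax from non-linear regression.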

T1 sequence (P43220 24-463): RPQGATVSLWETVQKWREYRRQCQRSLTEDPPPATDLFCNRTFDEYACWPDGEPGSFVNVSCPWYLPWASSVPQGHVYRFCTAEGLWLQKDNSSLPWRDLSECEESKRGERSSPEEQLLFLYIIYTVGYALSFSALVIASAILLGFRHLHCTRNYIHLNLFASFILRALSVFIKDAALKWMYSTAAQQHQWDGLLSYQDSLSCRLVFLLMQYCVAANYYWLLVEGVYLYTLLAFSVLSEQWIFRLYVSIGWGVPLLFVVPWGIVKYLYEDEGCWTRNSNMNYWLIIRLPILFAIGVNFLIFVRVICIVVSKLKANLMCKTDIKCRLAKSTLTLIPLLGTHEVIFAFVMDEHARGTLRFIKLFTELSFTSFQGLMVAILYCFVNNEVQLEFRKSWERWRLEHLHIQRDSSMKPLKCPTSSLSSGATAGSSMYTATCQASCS
T1 sequence (P01275 100-127 partner limits assumed): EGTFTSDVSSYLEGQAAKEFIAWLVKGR

Row | EC50 | Structure (SMILES)
1 | 2500 to 5000 nM | CCCC1CCN(C(=O)C(C)(C)CNc2cnc(-c3ccc(C[C@H](NC(=O)c4ccc(C(C)(C)C)s4)C(=O)N4CC(C(=O)O)C4)cc3)nc2)CC1 [Compound 1497]
2 | 800 to 2500 nM | CCCc1ccc(C2CCN(c3cnc(-c4ccc(C[C@H](NC(=O)c5ccc(C(C)(C)C)s5)C(=O)N5CC(C(=O)O)C5)cc4)nc3)CC2)cn1 [Compound 1498]
3 | 2500 to 5000 nM | CCCc1cnc(C2CCN(c3cnc(-c4ccc(C[C@H](NC(=O)c5ccc(C(C)(C)C)s5)C(=O)N5CC(C(=O)O)C5)cc4)nc3)CC2)nc1 [Compound 1499]
4 | 5000 to 10000 nM | CC(C)(C)c1ccc(C(=O)N[C@@H](Cc2ccc(-c3ncc(N4CCC(c5ccc(CC#N)cc5)CC4)cn3)cc2)C(=O)N2CC(C(=O)O)C2)s1 [Compound 1500]
5 | 5000 to 10000 nM | CCCc1ccc(C2CCN(c3cnc(-c4ccc(C[C@H](NC(=O)c5ccc(C(C)(C)C)s5)C(=O)N5CC(C(=O)O)C5)cc4)nc3)CC2)nn1 [Compound 1501]
6 | 2500 to 5000 nM | CCCc1ccc(C2CN(c3cnc(-c4ccc(C[C@H](NC(=O)c5ccc(C(C)(C)C)s5)C(=O)N5CC(C(=O)O)C5)cc4)nc3)C2)cc1 [Compound 1502]
7 | 800 to 2500 nM | CCCCc1ccc(C2CN(c3cnc(-c4ccc(C[C@H](NC(=O)c5ccc(C(C)(C)C)s5)C(=O)N5CC(C(=O)O)C5)cc4)nc3)C2)cc1 [Compound 1503]
8 | 800 to 2500 nM | CCCc1ccc(C2CCN(c3cnc(-c4ccc(C[C@H](NC(=O)c5ccc(C(C)(C)C)s5)C(=O)N5CC(C(=O)O)C5)cc4)nc3)C2)cc1 (stereo partly shown) [Compound 1504]
9 | 800 to 2500 nM | CCCCc1ccc(C2CCN(c3cnc(-c4ccc(C[C@H](NC(=O)c5ccc(C(C)(C)C)s5)C(=O)N5CC(C(=O)O)C5)cc4)nc3)C2)cc1 (stereo partly shown) [Compound 1505]
10 | 5000 to 10000 nM | CCCCC1CCN(C2CCN(c3cnc(-c4ccc(C[C@H](NC(=O)c5ccc(C(C)(C)C)s5)C(=O)N5CC(C(=O)O)C5)cc4)nc3)CC2)C(=O)C1 (stereo partly shown) [Compound 1506]
11 | 800 to 2500 nM | CCCc1ccc(C2CCCN(c3cnc(-c4ccc(C[C@H](NC(=O)c5ccc(C(C)(C)C)s5)C(=O)N5CC(C(=O)O)C5)cc4)nc3)CC2)cc1 (stereo partly shown) [Compound 1507]
12 | < 800 nM | CCCCc1ccc(C2CCCN(c3cnc(-c4ccc(C[C@H](NC(=O)c5ccc(C(C)(C)C)s5)C(=O)N5CC(C(=O)O)C5)cc4)nc3)CC2)cc1 (stereo partly shown) [Compound 1508]
13 | 5000 to 10000 nM | CCCc1ccc(CC2CN(c3cnc(-c4ccc(CC(NC(=O)c5ccc(C(C)(C)C)s5)C(=O)N5CC(C(=O)O)C5)cc4)nc3)C2)cc1 (stereo not shown) [Compound 1509]
14 | 2500 to 5000 nM | CCCCc1ccc(CC2CN(c3cnc(-c4ccc(CC(NC(=O)c5ccc(C(C)(C)C)s5)C(=O)N5CC(C(=O)O)C5)cc4)nc3)C2)cc1 (stereo not shown) [Compound 1510]
15 | < 800 nM | CCCc1ccc(N2CCN(c3cnc(-c4ccc(C[C@H](NC(=O)c5ccc(C(C)(C)C)s5)C(=O)N5CC(C(=O)O)C5)cc4)nc3)CC2)cc1 [Compound 1511]
16 | < 800 nM | CCC[C@H]1CC[C@H](C2CC(=O)N(c3cnc(-c4ccc(C[C@H](NC(=O)c5ccc(C(C)(C)C)s5)C(=O)N5CC(C(=O)O)C5)cc4)nc3)C(=O)C2)CC1 [Compound 1512]
17 | < 800 nM | CCC[C@H]1CC[C@H](C2CCN(c3cnc(-c4ccc(C[C@H](NC(=O)c5ccc(C(C)(C)C#N)s5)C(=O)N5CC(C(=O)O)C5)cc4)nc3)CC2)CC1 [Compound 1513]
18 | < 800 nM | CCC[C@H]1CC[C@H](C2CCN(c3cnc(-c4ccc(C[C@H](NC(=O)c5cnc(C(C)(C)C)nc5)C(=O)N5CC(C(=O)O)C5)cc4)nc3)CC2)CC1 [Compound 1514]
19 | < 800 nM | CCC[C@H]1CC[C@H](C2CCN(c3cnc(-c4ccc(C[C@H](NC(=O)c5ccc(C6CC6)s5)C(=O)N5CC(C(=O)O)C5)cc4)nc3)CC2)CC1 [Compound 1515]

Row | EC50 | Structure (SMILES)
20 | < 800 nM | CCC[C@H]1CC[C@H](C2CCN(c3cnc(-c4ccc(C[C@H](NC(=O)c5cnn(C(C)(C)C)c5)C(=O)N5CC(C(=O)O)C5)cc4)nc3)CC2)CC1 [Compound 1516]
21 | < 800 nM | CN(C)c1ccc(C2CCN(c3cnc(-c4ccc(CC(NC(=O)c5ccc(C(C)(C)C)s5)C(=O)N5CC(C(=O)O)C5)cc4)nc3)CC2)cc1 (stereo not shown) [Compound 1517]
22 | < 800 nM | CCC[C@H]1CC[C@H](C2CCN(c3cnc(-c4ccc(C[C@H](NC(=O)c5ccc(C(C)(C)CC)cc5)C(=O)N5CC(C(=O)O)C5)cc4)nc3)CC2)CC1 [Compound 1518]
23 | < 800 nM | CCC[C@H]1CC[C@H](C2CCN(c3cnc(-c4ccc(C[C@H](NC(=O)c5ccc(C6(C)CC6)cc5)C(=O)N5CC(C(=O)O)C5)cc4)nc3)CC2)CC1 [Compound 1519]
24 | < 800 nM | CCC[C@H]1CC[C@H](C2CCN(c3cnc(-c4ccc(C[C@H](NC(=O)c5ccc(C6CC6)cc5)C(=O)N5CC(C(=O)O)C5)cc4)nc3)CC2)CC1 [Compound 1520]
25 | < 800 nM | CCCc1ccc(C(=O)N[C@@H](Cc2ccc(-c3ncc(N4CCC([C@H]5CC[C@H](CCC)CC5)CC4)cn3)cc2)C(=O)N2CC(C(=O)O)C2)cc1 [Compound 1521]
26 | < 800 nM | CCC[C@H]1CC[C@H](C2CCN(c3cnc(-c4ccc(C[C@H](NC(=O)c5ccc(CC(C)C)s5)C(=O)N5CC(C(=O)O)C5)cc4)nc3)CC2)CC1 [Compound 1522]
27 | 800 to 2500 nM | CCC[C@H]1CC[C@H](C2CCN(c3cnc(-c4ccc(C[C@H](NC(=O)c5ccc(S(=O)(=O)C(C)C)cc5)C(=O)N5CC(C(=O)O)C5)cc4)nc3)CC2)CC1 [Compound 1523]
28 | < 800 nM | CCC[C@H]1CC[C@H](C2CCN(c3cnc(-c4ccc(C[C@H](NC(=O)c5ccc(OC(C)(C)C)cc5)C(=O)N5CC(C(=O)O)C5)cc4)nc3)CC2)CC1 [Compound 1524]
29 | < 800 nM | CCC[C@H]1CC[C@H](C2CCN(c3cnc(-c4ccc(C[C@H](NC(=O)c5cc6cc(OC)ccc6[nH]5)C(=O)N5CC(C(=O)O)C5)cc4)nc3)CC2)CC1 [Compound 1525]
30 | < 800 nM | CCC[C@H]1CC[C@H](C2CCN(c3cnc(-c4ccc(C[C@H](NC(=O)c5ccc(C(C)(C)C#N)cc5)C(=O)N5CC(C(=O)O)C5)cc4)nc3)CC2)CC1 [Compound 1526]
31 | 800 to 2500 nM | CCC[C@H]1CC[C@H](C2CCN(c3cnc(-c4ccc(C[C@H](NC(=O)[C@H]5CC[C@H](C(C)(C)C)CC5)C(=O)N5CC(C(=O)O)C5)cc4)nc3)CC2)CC1 [Compound 1527]
32 | 800 to 2500 nM | CCC[C@H]1CC[C@H](C2CCN(c3cnc(-c4ccc(C[C@H](NC(=O)c5ccc(C)cc5)C(=O)N5CC(C(=O)O)C5)cc4)nc3)CC2)CC1 [Compound 1528]
33 | < 800 nM | CCC[C@H]1CC[C@H](C2CCN(c3cnc(-c4ccc(C[C@H](NC(=O)c5ccc(CC)cc5)C(=O)N5CC(C(=O)O)C5)cc4)nc3)CC2)CC1 [Compound 1529]
34 | 800 to 2500 nM | CCC[C@H]1CC[C@H](C2CCN(c3cnc(-c4ccc(C[C@H](NC(=O)c5ccc(C)s5)C(=O)N5CC(C(=O)O)C5)cc4)nc3)CC2)CC1 [Compound 1530]
35 | < 800 nM | CCC[C@H]1CC[C@H](C2CCN(c3cnc(-c4ccc(C[C@H](NC(=O)c5ccc(C(C)(C)C)nc5)C(=O)N5CC(C(=O)O)C5)cc4)nc3)CC2)CC1 [Compound 1531]
36 | < 800 nM | CCC[C@H]1CC[C@H](C2CCN(c3cnc(-c4ccc(C[C@H](NC(=O)c5ccn(C(C)(C)C)c5)C(=O)N5CC(C(=O)O)C5)cc4)nc3)CC2)CC1 [Compound 1532]
37 | < 800 nM | CCC[C@H]1CC[C@H](C2CCN(c3cnc(-c4ccc(C[C@H](NC(=O)c5ccc(CC)s5)C(=O)N5CC(C(=O)O)C5)cc4)nc3)CC2)CC1 [Compound 1533]
